Measured values: patent US20070093499A1, “Use of dasatinib for the treatment of bone metastasis” (Bristol-Myers Squibb Company, priority 2005, published 2007)
Blank lines part the entries; values can stand above or below the compound they belong to. Ends that are not written are not given here.

Assays:
[1] = system: ovariectomized rats; conditions: Missbach et al. 1999; cited from earlier work
[2] = system: fetal rat long bone culture; conditions: Missbach et al. 1999; cited from earlier work
[3] = system: TPTX rats; test: Serum calcium in thyro-parathyroidectomized rats, IP dosing; format: in vivo, rat
Procedure: Thyro-parathyroidectomy (TPTX) surgery was performed on male Sprague-Dawley rats (200 gram body weight) as described previously.4 Thyro-parathyroidectomized (TPTX) rats with serum calcium values of 5-8 mg/dl were used for the study (normal reference range is 10-12 mg/dl). On the day of the study (48 hours post-surgery), blood was collected from the tail vein under isoflurane anesthesia, and Alzet mini-pumps (delivering 1 μl/hr) containing 0.3 μg/ml of parathyroid hormone (PTH) were implanted subcutaneously. […] Blood was collected at 3, 6 & 24 hours after dosing and analyzed for serum calcium levels.

[4] = system: TPTX rats; test: Inhibition of PTH-induced hypercalcemia (serum calcium) in TPTX rats, oral BMS-354825; format: in vivo, rat
Procedure: Male Sprague-Dawley TPTX rats with basal serum calcium levels around 7-8 mg/dl were randomly assigned to the experimental groups. Alzet® mini-pumps containing a resorption stimulus (PTH: infusion rate of 0.3 μg/hr) were implanted subcutaneously. In brief, rats were anesthetized with isoflurane (5% of oxygen), the skin of the flank area was disinfected with a topical disinfectant. Following a small incision, a subcutaneous pouch was made with a sterile pair of blunt scissors, a mini-pump was inserted and the incision was closed with a wound clip. Upon drug administration, 500 μl of blood was sampled at the indicated time points by retro-orbital bleeding, the serum was collected and frozen at −80° C. Levels of serum calcium and drug were analyzed accordingly.
The serum levels of calcium of TPTX rats were quantitated by a photometric assay with the Roche Hitachi 917 (H9 17) automated chemistry analyzer (Indianapolis, Ind.). In this method, calcium reacts with o-cresolphthalein complexone in the presence of 8-hydroxyquinoline to form a purple chromophore. The color intensity of the purple complex is directly proportional to the calcium concentration and is measured photometrically on the analyzer. This method is capable of quantifying 0.2-18.2 mg/dL of serum calcium. For samples >18.2 mg/dL the samples must be diluted in saline and the value multiplied by the appropriate factor.
Malignancy related hypercalcemia has been strongly linked with bone resorption mediated by stimulation of native osteoclast formation and activity. […] In this model, the thyroid and parathyroid are surgically removed to induce hypocalcemia, then subsequent infusion with PTH stimulates the osteoclast-mediated calcemic response. […]. […] […]. […] […].
“Zoledronic acid versus placebo in the treatment of skeletal metastases in patients with lung cancer and other solid tumors: a phase III, double-blind, randomized trial—the Zoledronic Acid Lung Cancer and Other Solid Tumors Study Group.” J Clin Oncol 21(16): 3150-7). […] […]. […] […]. Due to the fact that osmotic pump works less efficiently after day 4, we intended not to include the data of calcium levels thereafter. […].

[5] = system: osteoclasts; conditions: cell culture; Murray et al. 2003; cited from earlier work
[6] = system: bone resorption; conditions: Murray et al. 2003; cited from earlier work
[7] = in vivo; conditions: Sprague-Dawley, rat, po, 30 mg/kg
Procedure: The serum levels of drug were analyzed by high performance liquid chromatography/mass spectrometry (HPLC/MS). […] After centrifugation to remove precipitated proteins, 5 μl of the supernatant was analyzed by HPLC/MS. The HPLC column was a Phenomenex Prodigy C18-ODS3 column (2 mm×50 mm, […]) maintained at 60° C. with a flow rate of 0.5 ml/min. […] The HPLC was interfaced to a Finnigan LCQ Advantage ion-trap mass spectrometer operated in the positive ion electrospray and full MS/MS mode. […] The limit of quantitation (LOQ) for the purposes of this assay was 0.004 μM. Quality control (QC) samples at two levels in the range of the standard curve were used to accept individual analytical sets. [drawing 3]
PK data analysis was performed by noncompartmental method using Kinetica (v4.0.2, InnaPhase Corporation, Philadelphia, Pa.). The maximum plasma concentration (Cmax) and the time reaching Cmax (Tmax) were determined by visually inspecting the profiles of plasma level of drug vs. time. […] The area under the plasma drug concentration curve (AUC) was estimated by the trapezoidal rule.

[8] = system: TRAP positive osteoclasts in mouse bone marrow cell culture; test: Osteoclast formation (TRAP staining) in mouse bone marrow cell culture; format: cell-based
Procedure: Bone marrow was harvested by flushing the femur and tibia bones of CDF-1 mice with PBS followed by washing twice with PBS and resuspending in DMEM with 10% FBS (1-2×10^6 cells/m, 10 ml). Cells were then seeded in 24-well plates (2×10^6 cells/well/ml) and were cultured for 6-9 days in DMEM media supplemented with the cytokines: 10 ng/ml recombinant mouse M-CSF-1 and 100 ng/ml recombinant mouse RANK ligand to induce osteoclast development. Culture medium was replaced every two days till day 5 and there was no medium replacing between day 6 and day 9. […] On days 5, 7, and 9, cell viability and number of TRAP positive cells were determined using the Acid Phosphatase Leukocyte staining kit. The bone marrow cells were washed with PBS and stained according to the protocol recommended by the vendor. TRAP positive cells and osteoclasts were counted using an inverted microscope.
Differentiation to osteoclasts then occurs in the presence of osteoclast differentiation factor or RANK ligand (Buckley and Fraser Buckley, K. A. and W. D. Fraser (2002). “Receptor activator for nuclear factor kappaB ligand and osteoprotegerin: regulators of bone physiology and immune responses/potential therapeutic agents and biochemical markers.” Ann Clin Biochem 39(Pt 6): 551-6.). To establish the cell culture model of osteoclasts, bone marrow cells were freshly harvested from the tibia and femur bones of mice and were seeded in 24-wells plates containing DMEM medium supplemented with 20 ng/ml M-CSF and 100 ng/ml RANK ligand, which are the conditions commonly used in murine bone marrow culturing conditions (Murray, L. J., T. J. Abrams, et al. (2003). “SU11248 inhibits tumor growth and CSF-1R-dependent osteolysis in an experimental breast cancer bone metastasis model.” Clin Exp Metastasis 20(8): 757-66.). The formation of osteoclasts was monitored by TRAP staining for 9 days. […] Starting from day 5, TRAP positive staining cells were observed, and the multi-nucleated TRAP positive staining osteoclasts (with ≧3 nuclei) were clearly detected on day 7 and became most abundant by day 9.
[…]. […] […]. […] […].

[9] = system: PTH-stimulated bone resorption in fetal rat long bones; test: In vitro bone resorption assay (45Ca release from fetal rat long bones); format: cell-based
Procedure: Fetal rat long bones were prepared and cultured as described previously. (Feyen J H M, Cardinaux F, Gamse R, Bruns C, Azria M, and Trechsel U. N-terminal truncation of salmon calcitonin leads to calcitonin antagonist. Structure activity relationship of N-terminally truncated salmon calcitonin fragments in vitro and in vivo. Biochemistry and Biophysiology Research Communication 1992; 187:8-13.) Briefly, pregnant Sprague Dawley rats were injected subcutaneously with 200 μCi ^45Ca on day 18 of gestation. The following day, radii and ulnae were dissected free from muscle and connective tissue. The cartilaginous ends of the bones were removed and the calcified diaphyses were cultured in 0.5 mL BGJ medium supplemented with 1 mg/mL bovine serum albumin (BSA, fraction V) in 24-well tissue culture plates in a CO2 incubator at 37° C. overnight to reduce free exchangeable calcium. Next, medium was replaced and the bone explants were maintained in culture for 5 days in the presence or absence of the compounds to be tested. On day 2, a 100 μL aliquot was taken from the medium and the medium was replaced with fresh medium with or without treatments. […] The amount of radioactive calcium was determined using a Beckman liquid scintillation counter. Bone resorption was expressed as the percentage ^45Ca released by day 5 of total amount of ^45Ca originally incorporated in bone explants.

Compound: COc1cccc(-c2cn(-c3ccc(CCN4CCC(O)CC4)cc3)c3ncnc(N)c23)c1 [CGP77675]
bone resorption [1]: inhibitory potency
parathyroid hormone (PTH)-induced bone resorption [2]: inhibitory potency

Compound: Salmon Calcitonin [reference compound]
Serum Calcium ([3]; 5 IU ip, 0 Hour (before dosing)): 6.68 ± 0.21 mg/dL
Serum Calcium ([3]; 5 IU ip, 3 Hour): 5.06 ± 0.13 mg/dL
Serum Calcium ([3]; 5 IU ip, 6 Hour): 5.14 ± 0.15 mg/dL
Serum Calcium ([3]; 5 IU ip, 24 Hour): 10.62 ± 0.64 mg/dL

Compound: calcitonin: a drug currently being used to manage hypercalcemia clinically, used as a reference compound (CGNLSTCMLGTYTQDFNKFHTFPQTAIGVGAP; ends and bridges not checked; cysteine pairing not given here; UniProt P01258 85-116, looked up) [reference compound]
inhibition of serum calcium levels ([4]; 5 IU/dose sc): rapid inhibition of serum calcium levels, but the inhibition was reversed rapidly
serum calcium levels vs control rats ([4]; day 3, 5 IU/dose sc): no significant difference

Compound: O=P(O)(O)C(O)(Cn1ccnc1)P(=O)(O)O [zometa, reference compound]
onset of inhibition of serum calcium levels ([4]; 0.4 mg/kg/dose sc (QD×5), PTH infused 24 hr prior to treatment): did not produce any appreciable inhibition until 24 hr

Compound: CCN(CC)CCNC(=O)c1c(C)[nH]c(/C=C2\C(=O)Nc3ccc(F)cc32)c1C [Su-11248]
formation and function of osteoclasts [5]: inhibitory potency
bone resorption in vivo [6]: inhibitory potency

AUC0-24 hr [7]: 0.91 µM·h
Cmax [7]: 60 nM
AUC(0-t) ([7]; AUC0-24 hr): 1.16 µM·h
IC50 ([8]; Mus musculus, Osteoclast, 120 h, read-out: IC50, drug concentration required to inhibit 50% of osteoclast formation): 4.4 nM
IC50 ([9]; Rattus norvegicus, PTH 10^-8 M, read-out: apparent IC50, PTH-stimulated release of 45Ca (bone resorption)): 2 nM
Compound: Cc1nc(Nc2ncc(C(=O)Nc3c(C)cccc3Cl)s2)cc(N2CCN(CCO)CC2)n1 [BMS-354825, N-(2-chloro-6-methylphenyl)-2-((6-(4-(2-hydroxyethyl)-1-piperazinyl)-2-methyl-4-pyrimidinyl)amino)-1,3-thiazole-5-carboxamide]
Serum Calcium ([3]; 3 mg/kg ip, 0 Hour (before dosing)): 6.74 ± 0.29 mg/dL
Serum Calcium ([3]; 3 mg/kg ip, 3 Hour): 5.68 ± 0.26 mg/dL
Serum Calcium ([3]; 3 mg/kg ip, 6 Hour): 7.94 ± 1.19 mg/dL
Serum Calcium ([3]; 3 mg/kg ip, 24 Hour): 11.88 ± 0.61 mg/dL
significance of serum calcium effect vs vehicle ([3]; 3 mg/kg ip, 3 hour time point): not significant
Serum Calcium ([3]; 10 mg/kg ip, 0 Hour (before dosing)): 6.68 ± 0.25 mg/dL
Serum Calcium ([3]; 10 mg/kg ip, 3 Hour): 5.80 ± 0.19 mg/dL
Serum Calcium ([3]; 10 mg/kg ip, 6 Hour): 5.36 ± 0.12 mg/dL
Serum Calcium ([3]; 10 mg/kg ip, 24 Hour): 7.70 ± 0.78 mg/dL
serum calcium levels vs vehicle and calcitonin ([3]; 10 mg/kg ip, after 24 hours): significantly lower than both vehicle and calcitonin
inhibition of hypercalcemia compared with zometa 0.4 mg/kg/dose sc ([4]; 30 mg/kg/dose po, once daily): more effective than zometa
inhibition of hypercalcemia compared with zometa 0.4 mg/kg/dose sc ([4]; 15 and 5 mg/kg/dose po, multiple treatment schedule): comparable inhibitory effect
time to inhibition of serum calcium levels ([4]; 30, 15, 5 mg/kg/dose po (QD×5), PTH infused 24 hr prior to treatment): ≤ 3 h
inhibition of serum calcium levels ([4]; 30, 15 and 5 mpk po (QD×1), upon initiation of PTH infusion): dose dependent inhibition
inhibition of serum levels of calcium ([4]; 30 mpk (QD×1) and 15 mpk (2QD×1), orally): rapidly inhibited
serum calcium levels vs control rats ([4]; day 3 post drug administration, 30 mpk QD×1 / 15 mpk 2QD×1 po): significantly below those of the control rats
time of maximum inhibition of serum calcium levels ([4]; post drug administration, 15 and 30 mg/kg/dose po): 4 h
formation of osteoclasts ([8]; DMEM with M-CSF/RANK ligand, dosed on day 5 post seeding): inhibited dose dependently
number of osteoclasts ([8]; both culturing conditions: MDA-MB-231 condition media and DMEM with CSF/RANK ligand): significantly reduced
number of the TRAP positive staining osteoclasts ([8]; various concentrations dosed on day 5, cultured up to 9 days): significantly reduced
PTH-stimulated bone resorption ([9]; at 5 nM): completely blocks
